From patent US11737462B2, “Methods for modulating plant response to environmentally-induced stress” (Howard University, priority 2012, dated 2023)

Experiments:
[1] = tested on: pepper plants; test: salt-induced stress in pepper plants; assay type: in vivo; settings: 60 μM compound plus 250 mM NaCl, 48 hours, about 24° C.
Experimental: In the examples described herein, the test compounds (e.g., SD-29 or analogs thereof) were dissolved in dimethyl sulfoxide (DMSO) to provide a 20 mM concentration. Micromolar concentrations were then prepared as needed by addition to the water incubation media. Unless stated otherwise, the experimental plants were incubated with the roots immersed in the water containing the compound. The control plants received only DMSO in the same amount as that of the compound.
Salt-induced stress was evaluated with pepper plants at room temperature (about 24° C.) for 48 hours. All plants received sufficient incubation media to last the seven days. Plant A received 60 μM SD-29 plus 250 mM NaCl and plant B received 250 mM NaCl in the incubation medium with DMSO.

[2] = biological target: T1, Arabidopsis RACK1A (Arabidopsis thaliana, UniProt O24456); test: western blot of RACK1A tyrosine phosphorylation in Arabidopsis leaves under heat stress; assay type: in vivo
T1 construct: from tissue; host or cells: Arabidopsis plant leaves
T1 sequence (O24456 whole entry): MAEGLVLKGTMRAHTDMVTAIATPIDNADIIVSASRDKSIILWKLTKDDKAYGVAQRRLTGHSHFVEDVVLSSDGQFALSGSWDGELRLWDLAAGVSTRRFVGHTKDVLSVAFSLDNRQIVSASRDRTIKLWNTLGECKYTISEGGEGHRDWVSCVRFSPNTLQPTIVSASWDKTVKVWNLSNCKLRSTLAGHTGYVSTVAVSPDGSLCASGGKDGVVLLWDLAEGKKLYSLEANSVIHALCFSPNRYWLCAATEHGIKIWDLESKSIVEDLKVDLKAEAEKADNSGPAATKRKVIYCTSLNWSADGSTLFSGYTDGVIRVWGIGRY
Experimental: In the examples described herein, the test compounds (e.g., SD-29 or analogs thereof) were dissolved in dimethyl sulfoxide (DMSO) to provide a 20 mM concentration. Micromolar concentrations were then prepared as needed by addition to the water incubation media. Unless stated otherwise, the experimental plants were incubated with the roots immersed in the water containing the compound. The control plants received only DMSO in the same amount as that of the compound. In the second group (FIG. 3), Arabidopsis plants were held at 42° C. for six hours and compared to control plants held at about 22° C. The Arabidopsis plant in the experimental group was treated with 60 μM SD-29 in water. A control plant received water and DMSO. Lysates were then prepared from the leaves and western blots were performed using immobilized mouse anti-pTRY and Arabidopsis-anti RAC[…]. […] A similar experiment was carried out using analog SD-29-9 and SD-29 at 42° C. for three hours. […] A western blot was then performed using an antibody that was raised targeting phosphorylated […] residue of RAC[…].

[3] = tested on: RACK1A:GFP; test: RACK1A:GFP expression in transformed Arabidopsis plants; assay type: in vivo, Arabidopsis thaliana; settings: 60 μM compound with 250 mM salt for 6 hours
Experimental: Arabidopsis plants transformed with a RAC[…]:GFP construct were analyzed to determine the effect of SD-29 on expression of RAC[…]. The experimental plant was treated with 60 μM SD-29 with 250 mM salt for 6 hours. Controls were treated with and without salt. […] It is quite possible that downregulation of RAC[…] expression by SD-29 may be the cellular mechanism that allow the plants to withstand salt stress.

[4] = tested on: rice leaves; test: uptake of salts from the incubation medium by rice leaves; assay type: in vivo; settings: 60 μM compound, 250 mM NaCl, vs non-treated leaves
Experimental: The effect of SD-29 on modulating salt-induced stress was evaluated with rice detached leaves at room temperature (about 24° C.) for seven days in a water incubation medium. All plants received sufficient incubation medium to last the seven days. Plant A (left most) received 250 mM NaCl plus DMSO, Plant B (right of Plant A) received 60 μM SD-29 and 250 mM NaCl, and plant D received 60 μM SD-29 in the incubation medium. The incubation medium of Plant C was untreated. To examine whether the salt stress resistance comes from the differential uptake of sodium ions due to the drug treatment, the uptake of salts from the incubation medium was assayed (leaves from FIG. 5). […] The base point is indicated with 250 mM of salt line.

[5] = tested on: MnSOD; test: native gel assay of Mn-SOD activity in rice during salt stress; assay type: in vivo; settings: salt stress conditions, NaCN in gel activity buffer
[6] = tested on: bean plants; test: salt-induced stress in bean plants; assay type: in vivo; settings: 60 μM compound plus 250 mM NaCl, 96 hours, about 24° C.
Experimental: In the examples described herein, the test compounds (e.g., SD-29 or analogs thereof) were dissolved in dimethyl sulfoxide (DMSO) to provide a 20 mM concentration. Micromolar concentrations were then prepared as needed by addition to the water incubation media. Unless stated otherwise, the experimental plants were incubated with the roots immersed in the water containing the compound. The control plants received only DMSO in the same amount as that of the compound. Salt-induced stress was evaluated with bean plants at room temperature (about 24° C.) for 96 hours. All plants received sufficient incubation media to last the seven days. Plant A received 60 μM SD-29 plus 250 mM NaCl and plant B received 250 mM NaCl in the incubation medium.

[7] = tested on: Arabidopsis plants; test: drought-induced stress (sorbitol) in Arabidopsis plants; assay type: in vivo, Arabidopsis thaliana; settings: 150 mM sorbitol plus 60 μM compound, about three weeks, room temperature
Experimental: In the examples described herein, the test compounds (e.g., SD-29 or analogs thereof) were dissolved in dimethyl sulfoxide (DMSO) to provide a 20 mM concentration. Micromolar concentrations were then prepared as needed by addition to the water incubation media. Unless stated otherwise, the experimental plants were incubated with the roots immersed in the water containing the compound. The control plants received only DMSO in the same amount as that of the compound. The effect of SD-29 on modulating drought-induced stress was evaluated with Arabidopsis plants for about three weeks at room temperature. Sorbitol was used to imitate drought conditions. All plants received sufficient incubation media to last the seven days. Plant A was treated with DMSO (in a volume equal to the volume of SD-29 used for Plants B and C), plant B was treated with 150 mM sorbitol plus 60 μM SD-29, plant C was treated with 60 μM SD-29, and plant D was treated with 150 mM sorbitol in the incubation medium.

[8] = tested on: salt glands (trichome) on Arabidopsis leaves; test: sodium green dye staining of Arabidopsis leaves (sodium uptake); assay type: in vivo, Arabidopsis thaliana; settings: 1 week old plants, 100 mM salt, 60 μM compound, three hours
Experimental: 1 week old Arabidopsis plants were treated with and without 100 mM salt, as well as with and without the presence of 60 μM SD-29, in incubation medium for three hours. The leaves were stained with sodium green dye (5 μM) according to the manufacturer's protocol (Invitrogen, Calif.) and analyzed by fluorescent microscopy to determine if the plants take up sodium from the incubation medium. The dye fluoresces in the presence of sodium ion.

[9] = biological target: T2, rice RACK1A (Oryza sativa subsp. japonica, UniProt P49027); test: western blot with anti-pY248 of rice leaf lysates under salt stress; assay type: in vivo; settings: 60 μM compound and 250 mM NaCl, 75 μg protein per lane
T2 construct: from tissue; host or cells: rice leaves
T2 sequence (P49027 whole entry): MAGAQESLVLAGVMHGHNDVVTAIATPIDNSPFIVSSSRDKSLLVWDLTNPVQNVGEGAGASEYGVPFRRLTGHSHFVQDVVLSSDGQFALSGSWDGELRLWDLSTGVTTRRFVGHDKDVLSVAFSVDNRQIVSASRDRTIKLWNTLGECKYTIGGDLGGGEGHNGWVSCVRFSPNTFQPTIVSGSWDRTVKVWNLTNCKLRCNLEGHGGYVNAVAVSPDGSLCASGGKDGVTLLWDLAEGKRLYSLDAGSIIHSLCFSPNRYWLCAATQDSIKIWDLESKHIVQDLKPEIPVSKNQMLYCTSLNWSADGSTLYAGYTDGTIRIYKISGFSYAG
Experimental: The rice leaves were also analyzed by Western blot. Lysates were prepared from the leaves and western blot analysis was carried out using standard methods. 75 μg protein were loaded per lane. The membrane containing transferred proteins were probed with anti-pY248, which is an antibody raised to specifically detect phosphorylated tyrosine at residue 248 of RACK1A.

In the case of `Nn1c(S)nnc1-c1ccc(F)cc1` [SD-29], the “pepper plant condition in high salt” value [1] is reported as “thrived in the high salt conditions (with no chlorosis)”, the “Arabidopsis RACK1A tyrosine phosphorylation during heat stress” value ([2]; 60 μM, 42° C. for six hours, western blot of leaf lysates) is reported as “prevents Arabidopsis RACK1A tyrosine phosphorylation” and the “Arabidopsis RACK1A tyrosine phosphorylation at increased temperature” value ([2]; 42° C. for three hours, western blot, antibody to phosphorylated Y248) is reported as “effective to prevent Arabidopsis RACK1A tyrosine phosphorylation at increased temperature”. For the same compound, the “RACK1A:GFP expression” value [3] was “down regulation of RACK1A:GFP expression”, the “sodium ions remaining in the incubation medium” value [4] was “more sodium ions remained in the incubation medium” and the “MnSOD activity in rice” value [5] was “upregulates MnSOD activity”. For the same compound, the “bean plant condition in high salt” value [6] was “thrived (did not wilt) in the high salt conditions”, the “plant performance under drought-imitating sorbitol” value [7] was “performed much better than the plant treated with sorbitol alone” and the “salt uptake through the salt glands (sodium green fluorescence)” value [8] was “prevents salt uptake through the salt glands (trichome)”. For the same compound, the “rice RACK1A tyrosine (Y248) phosphorylation under salt stress” value [9] was “significantly inhibited rice RACK1A tyrosine phosphorylation”.
